The values that follow come from patent US7868135B2, “Compositions of lipopeptide antibiotic derivatives and methods of use thereof” (priority 2003, dated 2011).

The structures appear in SMILES notation. Starred links: 1 amine or outer side, 2 acyl side, 3 side chain; linkers in the order of their positions; H or OH if unused. Positions of bridges follow the written chain, without caps; N, C: chain ends. Non-standard residues stand in square brackets, D forms with d. Residues, ends and D or L forms follow the SMILES beside them. Groups on a side chain read outwards from the residue. ξ: configuration not given here. *: point of attachment. ξAbu(βξ-NH2) = CC(N[*:3])C(N[*:1])C(=O)[*:2]; Pentadecanoyl = CCCCCCCCCCCCCCC(=O)*; X8 = O=C(/C=C/c1ccc(N[*:1])cc1)[*:2]; ξAsp(βξ-Me) = CC(C(=O)O)C(N)C(=O)O; X1 = O=C(Cc1ccc(N[*:1])cc1)[*:2]; ξAbu(3ξ-NH2) = CC(N)C(N)C(=O)O; Lauroyl = CCCCCCCCCCCC(=O)*; Decanoyl = CCCCCCCCCC(=O)*; 4Abz = Nc1ccc(C(=O)O)cc1; Dab = NCC[C@H](N)C(=O)O; Pip = O=C(O)[CH]1CCCCN1; ξD = NC(CC(=O)O)C(=O)O; ξPip = O=C(O)C1CCCCN1; ξV = CC(C)C(N)C(=O)O; ξP = O=C(O)C1CCCN1; Sar = CNCC(=O)O

The subject of the first experiment is Staphylococcus aureus (MSSA). As to conditions: 24 h. The essentials: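 Broth microdilution MIC per NCCLS M7-A6 with doubling serial dilutions, in cation-adjusted Mueller-Hinton broth supplemented with 0.625 mM calcium.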
As usually defined, the MIC is the least concentration at which growth counts as inhibited. Take `CCCCCCCCCCCC(=O)Nc1ccc(/C=C/C(=O)NC(CC(=O)O)C(=O)NC2C(=O)N3CCCCC3C(=O)NC(C(C)C(=O)O)C(=O)NC(CC(=O)O)C(=O)NCC(=O)NC(CC(=O)O)C(=O)NCC(=O)NC(C(C)N)C(=O)NC(C(C)C)C(=O)N3CCCC3C(=O)NC2C)cc1` (stereo not drawn) [Compound 120, C12-(p-Amino-Trans-Cinnamyl)-Amphomycin] (Lauroyl-[X8]D[ξAbu(βξ-NH2)][Pip][ξAsp(βξ-Me)]DGDG[ξAbu(3ξ-NH2)]VP; lactam 3-C; configuration not given here): the MIC is 0.5 µg/mL. Regarding `CCCCCCCCCC(=O)Nc1ccc(CC(=O)NC(CC(=O)O)C(=O)NC2C(=O)N3CCCCC3C(=O)NC(C(C)C(=O)O)C(=O)NC(CC(=O)O)C(=O)NCC(=O)NC(CC(=O)O)C(=O)NCC(=O)NC(C(C)N)C(=O)NC(C(C)C)C(=O)N3CCCC3C(=O)NC2C)cc1` (stereo not drawn) [Compound 122, CH3—(CH2)9-(p-Apa)-Amphomycin] (Decanoyl-[X1]D[ξAbu(βξ-NH2)][Pip][ξAsp(βξ-Me)]DGDG[ξAbu(3ξ-NH2)]VP; lactam 3-C; configuration not given here; N-terminus assumed), the MIC turned out to be 8 µg/mL. As to `CCCCCCCCCCCC(=O)Nc1ccc(C(=O)NCC(=O)NC(CC(=O)O)C(=O)NC2C(=O)N3CCCCC3C(=O)NC(C(C)C(=O)O)C(=O)NC(CC(=O)O)C(=O)NCC(=O)NC(CC(=O)O)C(=O)NCC(=O)NC(C(C)N)C(=O)NC(C(C)C)C(=O)N3CCCC3C(=O)NC2C)cc1` (stereo not drawn) [Compound 123, C12-PABA-Gly-Amphomycin] ({Lauroyl-4Abz}-GD[ξAbu(βξ-NH2)][Pip][ξAsp(βξ-Me)]DGDG[ξAbu(3ξ-NH2)]VP; lactam 3-C; configuration not given here), the MIC turned out to be 1 µg/mL. Regarding `CCCCCCCCCCCCCCC(=O)NC(CC(=O)O)C(=O)NC1C(=O)N2CCCCC2C(=O)NC(C(C)C(=O)O)C(=O)NC(CC(=O)O)C(=O)NCC(=O)NC(CC(=O)O)C(=O)NCC(=O)NC(C(C)NC(=O)CN(C)C(=O)[C@@H](N)CCCN)C(=O)NC(C(C)C)C(=O)N2CCCC2C(=O)NC1C` (some centres unmarked) [Compound 144, C15-Amphomycin-9-Sar-Orn], the MIC worked out at 4 µg/mL.

`CCCCCCCCCCCCCCC(=O)NC(CC(=O)O)C(=O)NC1C(=O)N2CCCCC2C(=O)NC(C(C)C(=O)O)C(=O)NC(CC(=O)O)C(=O)NCC(=O)NC(CC(=O)O)C(=O)NCC(=O)NC(C(C)NC(=O)CN(C)C(=O)[C@@H](N)CCN)C(=O)NC(C(C)C)C(=O)N2CCCC2C(=O)NC1C` (stereo partly drawn) [Compound 145, C15-Amphomycin-9-Sar-gDab] (Pentadecanoyl-[ξD][ξAbu(βξ-NH2)][ξPip][ξAsp(βξ-Me)][ξD]G[ξD]G[ξAbu(βξ-NH2)]([Sar-Dab])[ξV][ξP]; lactam 2-C): the minimum inhibitory concentration (MIC) was 2 µg/mL. Still for that read-out and setting: then `CCCCCCCCCCCCCCC(=O)NC(CC(=O)O)C(=O)NC1C(=O)N2CCCCC2C(=O)NC(C(C)C(=O)O)C(=O)NC(CC(=O)O)C(=O)NCC(=O)NC(CC(=O)O)C(=O)NCC(=O)NC(C(C)NC(=O)CN(C)C(=O)[C@@H](N)CN)C(=O)NC(C(C)C)C(=O)N2CCCC2C(=O)NC1C` (some centres unmarked) [Compound 146, C15-Amphomycin-9-Sar-Dap], with 2 µg/mL; and `CCCCCCCCCCCCCCC(=O)NC(CC(=O)O)C(=O)NC1C(=O)N2CCCCC2C(=O)NC(C(C)C(=O)O)C(=O)NC(CC(=O)O)C(=O)NCC(=O)NC(CC(=O)O)C(=O)NCC(=O)NC(C(C)NC(=O)CCNC(=O)[C@@H](N)CCCN)C(=O)NC(C(C)C)C(=O)N2CCCC2C(=O)NC1C` (stereo partly drawn) [Compound 148, C15-Amphomycin-9-(β-Ala)-Orn], with 0.5 to 1 µg/mL; and `CCCCCCCCCCCCCCC(=O)NC(CC(=O)O)C(=O)NC1C(=O)N2CCCCC2C(=O)NC(C(C)C(=O)O)C(=O)NC(CC(=O)O)C(=O)NCC(=O)NC(CC(=O)O)C(=O)NCC(=O)NC(C(C)NC(=O)[C@H]2CCCN2C(=O)[C@H](N)CCCCN)C(=O)NC(C(C)C)C(=O)N2CCCC2C(=O)NC1C` (stereo partly drawn) [Compound 151, C15-Amphomycin-9-(D-Pro)-(D-Lys)], with 16 µg/mL. For `CCCCCCCCCCCCCCC(=O)NC(CC(=O)O)C(=O)NC1C(=O)N2CCCCC2C(=O)NC(C(C)C(=O)O)C(=O)NC(CC(=O)O)C(=O)NCC(=O)NC(CC(=O)O)C(=O)NCC(=O)NC(C(C)NC(=O)CNC(=O)[C@@H](N)CCCN)C(=O)NC(C(C)C)C(=O)N2CCCC2C(=O)NC1C` (some centres unmarked) [Compound 153, C15-Amphomycin-9-Gly-Orn], the minimal inhibitory concentration (MIC) came to 2 µg/mL. Take `CCCCCCCCCCCCCCC(=O)NC(CC(=O)O)C(=O)NC1C(=O)N2CCCCC2C(=O)NC(C(C)C(=O)O)C(=O)NC(CC(=O)O)C(=O)NCC(=O)NC(CC(=O)O)C(=O)NCC(=O)NC(C(C)NC(=O)CNC(=O)[C@@H](N)CCN)C(=O)NC(C(C)C)C(=O)N2CCCC2C(=O)NC1C` (some centres unmarked) [Compound 154, C15-Amphomycin-9-Gly-gDab]: the MIC was determined as 4 µg/mL.

The same experiment, now with this note: S. aureus (MSSA), CAMHB supplemented with 0.625 mM calcium, 24 hours at about 37° C.; a range = compound tested multiple times.
With `CCCCCCCCCCCCCC(=O)NC(CC(=O)O)C(=O)NC1C(=O)N2CCCCC2C(=O)NC(C(C)C(=O)O)C(=O)NC(CC(=O)O)C(=O)NCC(=O)NC(CC(=O)O)C(=O)NCC(=O)NC(C(C)NC(=O)CNC(=O)[C@@H](N)CCCCN)C(=O)NC(C(C)C)C(=O)N2CCCC2C(=O)NC1C` (some centres unmarked) [Compound 125, C14-Amphomycin-9-Gly-Lys], the MIC is 125/1-2 μg/mL. For the molecule `CCCCCCCCCCCCCC(=O)NC(CC(=O)O)C(=O)NC1C(=O)N2CCCCC2C(=O)NC(C(C)C(=O)O)C(=O)NC(CC(=O)O)C(=O)NCC(=O)NC(CC(=O)O)C(=O)NCC(=O)NC(C(C)NC(=O)[C@@H](N)CCCN)C(=O)NC(C(C)C)C(=O)N2CCCC2C(=O)NC1C` (some centres unmarked) [Compound 127, C14-Amphomycin-9-Orn], the MIC is recorded as 127/4 μg/mL. Consider `CCCCCCCCCCCCC(=O)NC(CC(=O)O)C(=O)NC1C(=O)N2CCCCC2C(=O)NC(C(C)C(=O)O)C(=O)NC(CC(=O)O)C(=O)NCC(=O)NC(CC(=O)O)C(=O)NCC(=O)NC(C(C)NC(=O)[C@@H](N)CCCN)C(=O)NC(C(C)C)C(=O)N2CCCC2C(=O)NC1C` (some centres unmarked) [Compound 134, C13-Amphomycin-9-Orn], for which the MIC is 134/32 μg/mL. `CCCCCCCCCCCCC(=O)NC(CC(=O)O)C(=O)NC1C(=O)N2CCCCC2C(=O)NC(C(C)C(=O)O)C(=O)NC(CC(=O)O)C(=O)NCC(=O)NC(CC(=O)O)C(=O)NCC(=O)NC(C(C)NC(=O)[C@@H](N)CN)C(=O)NC(C(C)C)C(=O)N2CCCC2C(=O)NC1C` (some centres unmarked) [Compound 136, C13-Amphomycin-9-Dap]: the MIC is 136/4 μg/mL. On to `CCCCCCCCCCCCCC(=O)NC(CC(=O)O)C(=O)NC1C(=O)N2CCCCC2C(=O)NC(C(C)C(=O)O)C(=O)NC(CC(=O)O)C(=O)NCC(=O)NC(CC(=O)O)C(=O)NCC(=O)NC(C(C)NC(=O)[C@@H](N)CN)C(=O)NC(C(C)C)C(=O)N2CCCC2C(=O)NC1C` (some centres unmarked) [Compound 140, C14-Amphomycin-9-Dap], for which the MIC is 140/32 μg/mL. As for `CCCCCCCCCCCCCCCC(=O)NC(CC(=O)O)C(=O)NC1C(=O)N2CCCCC2C(=O)NC(C(C)C(=O)O)C(=O)NC(CC(=O)O)C(=O)NCC(=O)NC(CC(=O)O)C(=O)NCC(=O)NC(C(C)NC(=O)CNC(=O)[C@@H](N)CCCCN)C(=O)NC(C(C)C)C(=O)N2CCCC2C(=O)NC1C` (some centres unmarked) [Compound 141, C16-Amphomycin-9-Gly-Lys], the MIC was 141/2 μg/mL. Take `CCCCCCCCCCCC(=O)NC(CC(=O)O)C(=O)NC1C(=O)N2CCCCC2C(=O)NC(C(C)C(=O)O)C(=O)NC(CC(=O)O)C(=O)NCC(=O)NC(CC(=O)O)C(=O)NCC(=O)NC(C(C)NC(=O)CNC(=O)[C@@H](N)CCCCN)C(=O)NC(C(C)C)C(=O)N2CCCC2C(=O)NC1C` (some centres unmarked) [Compound 143, C12-Amphomycin-9-Gly-Lys]: the MIC is reported as 143/2-4 μg/mL.
